Laboratory results reported in EP0566020A1, “Benzimidazoles, pharmaceutical compositions thereof and processes for their preparation” (Dr. Karl Thomae GmbH, priority 1992, dated 1993).

Molecular target: T1, Angiotensin II-Rezeptor (Rattus norvegicus, UniProt P25095)
T1 construct: Das Gewebe (Rattenlunge) wird in Tris-Puffer; from tissue; host or cells: rat lung homogenate (membrane pellet, 20,000 x g)
T1 sequence (P25095 1-359): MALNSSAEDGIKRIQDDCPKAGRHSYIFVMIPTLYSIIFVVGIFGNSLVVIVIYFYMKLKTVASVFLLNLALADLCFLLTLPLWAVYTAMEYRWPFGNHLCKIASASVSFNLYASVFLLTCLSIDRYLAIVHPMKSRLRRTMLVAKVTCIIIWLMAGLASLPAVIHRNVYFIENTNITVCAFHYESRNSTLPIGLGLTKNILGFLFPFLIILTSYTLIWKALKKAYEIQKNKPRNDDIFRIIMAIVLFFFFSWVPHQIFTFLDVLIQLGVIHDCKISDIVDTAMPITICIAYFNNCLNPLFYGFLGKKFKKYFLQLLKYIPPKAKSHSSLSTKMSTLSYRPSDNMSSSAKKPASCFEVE
Assay: Angiotensin II receptor binding ([125I]-angiotensin II displacement, rat lung homogenate)
Parameters: species or system Ratte
Details: Rattenlunge homogenate, 50 pM [¹²⁵I]-Angiotensin II, 60 Min. bei 37°C; read-out: IC₅₀
Description: Methodenbeschreibung Angiotensin II-Rezeptorbindung
Das Gewebe (Rattenlunge) wird in Tris-Puffer (50 mMol Tris, 150 mMol NaCl, 5 mMol EDTA, pH 7.40) homogenisiert und zweimal je 20 Min. bei 20.000 x g zentrifugiert. Das endgültige Pellet wird in Inkubations-Puffer (50 mMol Tris, 5 mMol MgCl₂, 0,2 % BSA, pH 7,40) 1:75, bezogen auf das Feuchtgewicht des Gewebes, resuspendiert. Je 0,1 ml Homogenat wird für 60 Min. bei 37°C mit 50 pM [¹²⁵I]-Angiotensin II (NEN, Dreieich, FRG) und steigenden Konzentrationen der Testsubstanz in einem Gesamtvolumen von 0,25 ml inkubiert. Die Inkubation wird durch rasche Filtration durch Glasfiber-Filtermatten beendet. Die Filter werden je 4 ml eiskaltem Puffer (25 mMol Tris, 2.5 mMol MgCl₂, 0,1 % BSA, pH 7,40) gewaschen. Die gebundene Radioaktivität wird in einem Gamma-Counter ermittelt. Aus der Dosis-Wirkungskurve wird der entsprechende IC₅₀-Wert ermittelt.

Row | SMILES | IC50
1 | CCCc1nc2c(C)cc(-c3nc4c([nH]3)CCCC4)cc2n1Cc1ccc(-c2ccccc2C(=O)O)cc1 [Substanz A, 4'-[[2-n-Propyl-4-methyl-6-(5,6,7,8-tetrahydrobenzimidazol-2-yl)-1H-benzimidazol-1-yl]-methyl]-biphenyl-2-carbonsäure] | 12 nM
2 | CCCc1nc2c(C)cc(-c3nc4c(n3Cc3ccccc3)CCCC4)cc2n1Cc1ccc(-c2ccccc2C(=O)O)cc1 [Substanz D, 4'-[[2-n-Propyl-4-methyl-6-(1-benzyl-5,6,7,8-tetrahydrobenzimidazol-2-yl)-1H-benzimidazol-1-yl]-methyl]-biphenyl-2-carbonsäure] | 6 nM
3 | CCc1nc2c(C)cc(-c3nc4c(n3-c3ccccc3)CCCC4)cc2n1Cc1ccc(-c2ccccc2C(=O)O)cc1 [Substanz E, 4'-[[2-Ethyl-4-methyl-6-(1-phenyl-5,6,7,8-tetrahydrobenzimidazol-2-yl)-1H-benzimidazol-1-yl]-methyl]-biphenyl-2-carbonsäure-hydrat] | 46 nM
4 | CCCc1nc2c(C)cc(-c3nc4c(n3CC(=O)O)CCCC4)cc2n1Cc1ccc(-c2ccccc2C(=O)O)cc1 [Substanz F, 4'-[[2-n-Propyl-4-methyl-6-(1-carboxymethyl-5,6,7,8-tetrahydrobenzimidazol-2-yl)-1H-benzimidazol-1-yl]-methyl]-biphenyl-2-carbonsäure-semihydrat] | 38 nM
5 | CCCc1nc2c(C)cc(C3=NC(C)(C)CO3)cc2n1Cc1ccc(-c2ccccc2C(=O)O)cc1 [Substanz H, 4'-[[2-n-Propyl-4-methyl-6-(4,4-dimethyl-oxazolin-2-yl)-1H-benzimidazol-1-yl]-methyl]-biphenyl-2-carbonsäure-di-trifluoracetat] | 37 nM
6 | CCCc1nc2c(C)cc(-c3nc(C(C)C)c(C)n3C)cc2n1Cc1ccc(-c2ccccc2C(=O)O)cc1 [Substanz K, 4'-[[2-n-Propyl-4-methyl-6-(4-isopropyl-1,5-dimethyl-imidazol-2-yl)-1H-benzimidazol-1-yl]-methyl]-biphenyl-2-carbonsäure x 1,25 Wasser] | 19.5 nM

Now those with a lower IC50, led by results:

Row | IC50 | SMILES
7 | 3.8 nM | CCCc1nc2c(C)cc(-c3nc4c(n3C)CCCC4)cc2n1Cc1ccc(-c2ccccc2C(=O)O)cc1 [Substanz B, 4'-[[2-n-Propyl-4-methyl-6-(1-methyl-5,6,7,8-tetrahydrobenzimidazol-2-yl)-1H-benzimidazol-1-yl]-methyl]-biphenyl-2-carbonsäure]
8 | 2.6 nM | CCCc1nc2c(C)cc(-c3nc4c(n3C)CCCC4)cc2n1Cc1ccc(-c2ccccc2-c2nnn[nH]2)cc1 [Substanz C, 4'-[[2-n-Propyl-4-methyl-6-(1-methyl-5,6,7,8-tetrahydrobenzimidazol-2-yl)-1H-benzimidazol-1-yl]-methyl]-2-(1H-tetrazol-5-yl)biphenyl]
9 | 1.6 nM | CCc1nc2c(C)cc(-c3nc4c(n3CC)CCCC4)cc2n1Cc1ccc(-c2ccccc2-c2nnn[nH]2)cc1 [Substanz G, 4'-[[2-Ethyl-4-methyl-6-(1-ethyl-5,6,7,8-tetrahydro-benzimidazol-2-yl)-1H-benzimidazol-1-yl]-methyl]-2-(1H-tetrazol-5-yl)-biphenyl-hydrat]
10 | 3.2 nM | CCCc1nc2c(C)cc(-c3nc(-c4ccccc4)c(C)n3C)cc2n1Cc1ccc(-c2ccccc2C(=O)O)cc1 [Substanz I, 4'-[[2-n-Propyl-4-methyl-6-(1,5-dimethyl-4-phenyl-imidazol-2-yl)-1H-benzimidazol-1-yl]-methyl]-biphenyl-2-carbonsäure-hydrat]
